Source: patent publication US7208502B2, “Methods of treating conditions associated with an Edg-3 receptor” (Maniv Energy Capital, priority 2002, dated 2007)

Key:
Edg-2 = molecular target: T1, Edg-2 (Homo sapiens, UniProt Q92633); experiment: Intracellular calcium assay, LPA-stimulated, HTC cells expressing Edg-2; assay type: cell-based; settings: concentrations as high as 20 µM
T1 construct: expressed in transfected cells; host or cells: HTC rat hepatoma cells

Edg-7 = molecular target: T2, Edg-7 (Homo sapiens, UniProt Q9UBY5); experiment: Intracellular calcium assay, LPA-stimulated, HTC cells expressing Edg-7; assay type: cell-based; settings: concentrations as high as 20 µM
T2 construct: expressed in transfected cells; host or cells: HTC rat hepatoma cells
T2 sequence (Q9UBY5 1-353): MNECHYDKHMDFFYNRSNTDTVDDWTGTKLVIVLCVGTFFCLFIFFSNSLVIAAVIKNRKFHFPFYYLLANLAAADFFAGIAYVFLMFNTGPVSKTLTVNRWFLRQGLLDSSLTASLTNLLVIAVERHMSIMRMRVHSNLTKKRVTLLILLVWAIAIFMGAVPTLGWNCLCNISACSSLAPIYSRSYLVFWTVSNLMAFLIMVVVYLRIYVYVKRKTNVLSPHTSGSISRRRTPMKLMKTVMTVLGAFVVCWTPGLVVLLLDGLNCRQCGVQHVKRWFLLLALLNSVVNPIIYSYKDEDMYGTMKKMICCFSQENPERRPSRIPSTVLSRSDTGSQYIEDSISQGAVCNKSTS

Edg-1 = molecular target: T3, Edg-1 (Homo sapiens, UniProt P21453); experiment: Intracellular calcium assay, S1P-stimulated, HTC cells expressing Edg-1; assay type: cell-based; settings: concentrations as high as 20 µM
T3 construct: expressed in transfected cells; host or cells: HTC rat hepatoma cells

Dopamine D2L = molecular target: T4, Dopamine D2L (Homo sapiens, UniProt P14416); experiment: Radioligand binding assay, 3H Spiperone; settings: 10 μM; significance criteria ≧50% of max stimulation or inhibition
T4 construct: expressed in transfected cells; host or cells: CHO cells
Method: (§1) In order to test the selectivity of compounds, various enzyme assays as well as radioligand binding assays were performed using numerous non-Edg receptor targets as listed below.
(§2) A radioligand binding assay was performed using adrenergic α1 according to the method of Greengrass and Bremner 1979, Eur. J. Pharmacol. 55:323–326. A radioligand binding assay was performed using adrenergic α2 according to the method of Boyajian and Leslie, 1987, J. Pharmacol. Exp. Ther. 241:1092–1098. A radioligand binding assay was performed using adrenergic β according to the method of Feve et al., 1994, Proc. Natl. Acad. Sci. USA 91:5677–5681. A radioligand binding assay was performed using angiotensin AT2 according to the method of Whitebread et al., 1991, Biochem. Biophys. Res. Comm. 181:1365–1371. A radioligand binding assay was performed using calcium channel Type L, dihydropyridine according to the method of Ehlert et al., 1982, Life Sci. 30:2191–2202. A radioligand binding assay was performed using dopamine D2L according to the method of Bunzo et al., 1988, Nature 336:783–787. A radioligand binding assay was performed using endothelin ETA according to the method of Mihara et al., 1994, J. Phrmacol. Exp Ther. 268:1122–1127. A radioligand binding assay was performed using histamine H1 Central according to the method of Hill et al., 1978, J. Neurochem. 31:997–1004. […]
(§3) Quantitation Method: Radioligand Binding […]

Histamine H1, Central = molecular target: T5, Histamine H1, Central (Cavia porcellus, UniProt P31389); experiment: Radioligand binding assay, 3H Pyrilamine; parameters: species or system Guinea pig; settings: 10 μM; significance criteria ≧50% of max stimulation or inhibition
T5 construct: from tissue; host or cells: guinea pig cerebellum
Method: as §1, §2, §3

T4 sequence (P14416 whole entry): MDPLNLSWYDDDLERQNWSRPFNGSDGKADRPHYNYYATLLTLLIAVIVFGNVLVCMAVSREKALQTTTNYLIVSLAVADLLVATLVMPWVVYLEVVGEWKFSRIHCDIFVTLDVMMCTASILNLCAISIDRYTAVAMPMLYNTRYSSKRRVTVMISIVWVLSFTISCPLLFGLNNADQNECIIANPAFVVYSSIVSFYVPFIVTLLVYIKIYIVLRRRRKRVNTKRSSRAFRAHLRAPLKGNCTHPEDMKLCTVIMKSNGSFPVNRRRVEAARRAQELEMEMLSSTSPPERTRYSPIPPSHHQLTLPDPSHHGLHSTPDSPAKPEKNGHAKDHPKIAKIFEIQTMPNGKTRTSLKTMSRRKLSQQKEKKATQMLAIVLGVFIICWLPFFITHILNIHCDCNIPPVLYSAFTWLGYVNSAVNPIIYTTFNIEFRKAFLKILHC
T1 sequence (Q92633 whole entry): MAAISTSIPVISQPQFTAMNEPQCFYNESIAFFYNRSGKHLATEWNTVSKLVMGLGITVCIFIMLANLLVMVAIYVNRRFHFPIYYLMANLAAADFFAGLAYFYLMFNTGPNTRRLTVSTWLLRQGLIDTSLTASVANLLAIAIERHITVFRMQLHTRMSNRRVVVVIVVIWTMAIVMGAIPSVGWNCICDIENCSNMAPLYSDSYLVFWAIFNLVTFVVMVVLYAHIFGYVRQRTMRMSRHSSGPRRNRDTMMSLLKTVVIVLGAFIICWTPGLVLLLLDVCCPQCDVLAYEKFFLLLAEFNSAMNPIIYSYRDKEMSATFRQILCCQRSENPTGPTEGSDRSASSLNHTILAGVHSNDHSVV
T5 sequence (P31389 whole entry): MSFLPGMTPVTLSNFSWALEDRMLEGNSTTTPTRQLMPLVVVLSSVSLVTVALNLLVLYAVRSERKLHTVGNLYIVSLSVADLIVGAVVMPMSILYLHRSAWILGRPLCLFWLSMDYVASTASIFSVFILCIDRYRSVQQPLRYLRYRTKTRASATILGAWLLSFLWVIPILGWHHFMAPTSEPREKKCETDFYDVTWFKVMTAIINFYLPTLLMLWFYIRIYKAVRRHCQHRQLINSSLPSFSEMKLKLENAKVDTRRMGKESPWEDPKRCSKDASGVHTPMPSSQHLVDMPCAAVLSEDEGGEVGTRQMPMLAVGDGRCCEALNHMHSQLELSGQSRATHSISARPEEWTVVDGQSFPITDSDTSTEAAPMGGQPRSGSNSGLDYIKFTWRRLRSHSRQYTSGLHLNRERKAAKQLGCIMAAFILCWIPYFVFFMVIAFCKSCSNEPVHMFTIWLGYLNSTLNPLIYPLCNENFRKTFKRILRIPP
T3 sequence (P21453 whole entry): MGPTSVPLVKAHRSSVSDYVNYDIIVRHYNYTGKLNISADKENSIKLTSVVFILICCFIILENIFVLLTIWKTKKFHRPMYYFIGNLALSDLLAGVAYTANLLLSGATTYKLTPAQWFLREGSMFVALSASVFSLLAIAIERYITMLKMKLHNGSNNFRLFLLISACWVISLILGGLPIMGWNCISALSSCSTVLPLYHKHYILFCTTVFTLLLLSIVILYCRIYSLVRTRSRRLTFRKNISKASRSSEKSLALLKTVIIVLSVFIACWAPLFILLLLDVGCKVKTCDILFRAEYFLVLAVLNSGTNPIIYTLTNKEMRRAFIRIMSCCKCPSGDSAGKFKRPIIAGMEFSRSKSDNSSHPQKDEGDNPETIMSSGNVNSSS

SMILES: Cc1c(-c2ccccc2)nc2ccccc2c1C(=O)NCc1ccc(F)cc1 [Compound 101, 3-methyl-2-phenyl-quinoline-4-carboxylic acid 4-fluoro-benzylamide]
- inhibition of LPA-stimulated calcium increases, Edg-2 (Edg-2): did not inhibit
- inhibition of LPA-stimulated calcium increases, Edg-7 (Edg-7): did not inhibit
- inhibition of S1P-stimulated calcium increases, Edg-1 (Edg-1): did not inhibit
- activity in standard binding assay, Dopamine D2L (Dopamine D2L): no activity
- activity in standard binding assay, Histamine H1, Central (Histamine H1, Central): no activity
